“And” between values parts separate entries of the source, which are not always exact repeats. Identical values can stand only once.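 Each compound was tested at five concentrations against cells in 96-well plates for 48 hours. Here, GI50 denotes the concentration required for 50% inhibition of growth. Definition used: TGI = concentration required for complete inhibition of growth.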

Consider 10 compounds from PubChem BioAssay (NCI).

Test systems include OVCAR-8 ovarian; NCI-H226 lung; RPMI-8226 leukemia; M14 melanoma; LOX IMVI melanoma; UACC-62 melanoma; TK-10 renal.
Holding throughout (test): growth of human tumour cells (NCI), 48 h

Regarding `COC(=O)C(Cc1ccccc1)NC(=O)NC(=O)NC(=O)CI` (centres undefined), the GI50 in the test with OVCAR-8 ovarian was 4.3 µM; in the test with NCI-H226 lung, 11.1 µM; in the test with RPMI-8226 leukemia, 2.69 µM; with M14 melanoma, 2.51 µM; with LOX IMVI melanoma, 1.56 µM; with UACC-62 melanoma, 12.3 µM. Also, the GI50 in the test with TK-10 renal was 4.12 µM. Moreover, the TGI in the test on OVCAR-8 ovarian worked out at 15.9 µM; in the test on NCI-H226 lung, 39.3 µM; in the test with RPMI-8226 leukemia it was 7.71 µM; in the test on M14 melanoma it was 7.45 µM; in the test with LOX IMVI melanoma, 3.23 µM; with UACC-62 melanoma it was 26 µM. For the same compound, in the test with TK-10 renal, the TGI was determined as 14.7 µM.

`CC(=O)NC1=C(OS(=O)(=O)c2ccc(C)cc2)CN(C)C1=O`: the TGI with OVCAR-8 ovarian stood at 20.3 µM; with NCI-H226 lung, 62.7 µM; in the test on RPMI-8226 leukemia it was 5.77 µM; with M14 melanoma, 20 µM; with LOX IMVI melanoma, 17.5 µM; with UACC-62 melanoma it was 21.2 µM. Also, the TGI in the test on TK-10 renal came to 7.97 µM.

In the case of `COc1cccc(NC(=O)c2sc3nc4c(cc3c2N)CN(Cc2ccccc2)CC4)c1`, the GI50 was 4.45 µM with OVCAR-8 ovarian; 6.03 µM in the test on NCI-H226 lung; 38.9 µM with RPMI-8226 leukemia; 12.7 µM in the test with M14 melanoma; 4.09 µM in the test on LOX IMVI melanoma; 1.92 µM in the test on UACC-62 melanoma. Moreover, the GI50 in the test on TK-10 renal was 4.82 µM. Further, the TGI was 85.2 µM in the test with OVCAR-8 ovarian; 38.3 µM in the test on NCI-H226 lung; greater than 100 µM with RPMI-8226 leukemia; 86.8 µM in the test with M14 melanoma; 43.5 µM in the test on LOX IMVI melanoma; 29.8 µM in the test with UACC-62 melanoma. This compound also had a TGI with TK-10 renal of 21.6 µM.

Turning to `COC(=O)Cn1c2c(c3c(O)cccc31)C(=O)c1ccccc1-2`, the GI50 in the test on OVCAR-8 ovarian, in the test on NCI-H226 lung, with RPMI-8226 leukemia, in the test with M14 melanoma, in the test with LOX IMVI melanoma and in the test with UACC-62 melanoma was greater than 100 µM each time. In addition, in the test on TK-10 renal, the GI50 is 45.4 µM. For the same compound, the TGI in the test on OVCAR-8 ovarian, in the test on NCI-H226 lung, in the test with RPMI-8226 leukemia, in the test with M14 melanoma, in the test on LOX IMVI melanoma and in the test on UACC-62 melanoma was greater than 100 µM throughout. Moreover, the TGI in the test on TK-10 renal was greater than 100 µM.

For the compound `CCN1CCC(CCOC)(CN2c3ccccc3Sc3ccc(Cl)cc32)C1` (centres undefined), the GI50 is 2.07 µM in the test on OVCAR-8 ovarian; 1.92 µM in the test on NCI-H226 lung; 2.52 µM in the test with RPMI-8226 leukemia; 1.92 µM with M14 melanoma; 2.05 µM in the test on UACC-62 melanoma; 2.03 µM in the test with TK-10 renal. Also, the TGI with OVCAR-8 ovarian was 4.14 µM; in the test with NCI-H226 lung, 4.67 µM; in the test on RPMI-8226 leukemia, 5.7 µM; in the test with M14 melanoma it was 3.62 µM; in the test on UACC-62 melanoma it was 3.81 µM; in the test with TK-10 renal it was 3.67 µM.

`C=CC(=O)N1CCN(c2ccc3cccc(NC(=O)c4cnc(C)cn4)c3n2)CC1`: the GI50 with OVCAR-8 ovarian is 3.46 µM; in the test on NCI-H226 lung, 4.44 µM; with RPMI-8226 leukemia, 1.5 µM; in the test with M14 melanoma it was 3.05 µM; with LOX IMVI melanoma, 5.14 µM; in the test with UACC-62 melanoma, 2.46 µM. Further, the GI50 in the test on TK-10 renal was 1.12 µM. The TGI in the test with OVCAR-8 ovarian is greater than 100 µM; with NCI-H226 lung it was 22.3 µM; with RPMI-8226 leukemia, 6.52 µM; with M14 melanoma, 21.3 µM; in the test with LOX IMVI melanoma, 21.4 µM; with UACC-62 melanoma it was 15.6 µM. In the test with TK-10 renal, the TGI is greater than 100 µM.

As to `O=[N+]([O-])c1cccc(-c2nc3sccn3c2-c2ccnc(NCCCNS(=O)(=O)c3cccc(F)c3)n2)c1`, the GI50 in the test with OVCAR-8 ovarian was 1.89 µM; in the test with NCI-H226 lung it was 1.66 µM; in the test with RPMI-8226 leukemia, 0.984 µM; in the test on M14 melanoma it was 2.82 µM; with LOX IMVI melanoma, 2.58 µM; with UACC-62 melanoma, 1.16 µM. Further, the GI50 in the test on TK-10 renal was 5.38 µM. The TGI is 17.7 µM in the test on OVCAR-8 ovarian; 8.22 µM in the test with NCI-H226 lung; 4.18 µM in the test on RPMI-8226 leukemia; 12 µM in the test with M14 melanoma; 11 µM in the test with LOX IMVI melanoma; 4.26 µM with UACC-62 melanoma. Also, the TGI in the test on TK-10 renal stood at 52 µM.

`CN(C)CCCN1c2ccccc2CCc2ccc(Cl)cc21`: the GI50 in the test on OVCAR-8 ovarian was 8.23 µM; in the test on NCI-H226 lung, 7.22 µM; in the test on RPMI-8226 leukemia it was 2.62 µM; in the test with M14 melanoma, 1.83 µM; in the test with LOX IMVI melanoma it was 2.31 µM; in the test on UACC-62 melanoma it was 1.61 µM. The GI50 in the test with TK-10 renal is 13.3 µM. Moreover, the TGI in the test with OVCAR-8 ovarian amounted to 23.6 µM; in the test with NCI-H226 lung, 22.5 µM; in the test with RPMI-8226 leukemia it was 8.26 µM; with M14 melanoma it was 3.35 µM; with LOX IMVI melanoma, 8.16 µM; in the test with UACC-62 melanoma, 3.31 µM. The same compound gave a TGI in the test on TK-10 renal of 27.2 µM.

`CN(C)c1ccc2c(c1)Sc1cc(N(C)C)ccc1N2C(=O)c1ccccc1`: the GI50 is 50.3 µM in the test on OVCAR-8 ovarian; 71.6 µM in the test on NCI-H226 lung; 76.1 µM in the test on RPMI-8226 leukemia; 75 µM in the test on M14 melanoma; 24.2 µM in the test on LOX IMVI melanoma; 17.5 µM in the test on UACC-62 melanoma. Besides, the TGI in the test with OVCAR-8 ovarian, with NCI-H226 lung, in the test with RPMI-8226 leukemia, in the test on M14 melanoma, in the test on LOX IMVI melanoma and in the test on UACC-62 melanoma was greater than 100 µM in each case.

Take `Cc1ccc(C(=O)Nc2cccc(C(F)(F)F)c2)cc1Nc1nc(-c2cccnc2)nc2c1cnn2C`: the GI50 was 3 µM and 2.34 µM in the test on OVCAR-8 ovarian; 2.3 µM and 1.63 µM in the test on NCI-H226 lung; 1.63 µM in the test with RPMI-8226 leukemia; 1.05 µM and 0.442 µM with M14 melanoma; 1.4 µM and 0.704 µM with LOX IMVI melanoma; 0.628 µM and 0.335 µM in the test with UACC-62 melanoma. In addition, the GI50 with TK-10 renal is 5.9 µM and 2.1 µM. In addition, the TGI with OVCAR-8 ovarian is 39.7 µM and > 10 µM; in the test with NCI-H226 lung, 7.45 µM and 5.64 µM; in the test with RPMI-8226 leukemia it was 6.04 µM; with M14 melanoma, 3.66 µM and 3.43 µM; with LOX IMVI melanoma it was 3.72 µM and 2.61 µM; in the test on UACC-62 melanoma, 5.37 µM and 4.25 µM. In addition, in the test with TK-10 renal, the TGI was 36.6 µM and 6.42 µM.
